# Measurements taken from patent publication US10722514B2 (FLX Bio, Inc., priority 2017, dated 2020).
# Where a name gives a salt, the structure may show the parent alone.
# Molecular target: T1, recombinant full-length USP7 (Homo sapiens, UniProt Q93009)
# T1 construct: A 25 μl reaction volume containing recombinant full-length USP7 (62 pM)
# Test: USP7-mediated ubiquitin-rhodamine cleavage assay
# Format: biochemical
# Settings: recombinant full-length USP7 62 pM; ubiquitin-rhodamine 100 nM; 30-minute incubation with compound, 1 hour reaction at room temperature; read-out: Potency: USP7 IC50
# Method in brief: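 USP7 (62 pM) in 20 mM HEPES pH 7.3, 150 mM NaCl, 1 mM TCEP, 125 μg/ml BSA was preincubated with compound (1% DMSO) for 30 min at room temperature. Ubiquitin-rhodamine (100 nM final) was then added for 1 hour, the reaction stopped with acetic acid, and fluorescence read; IC50 from 4-parameter fit.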
# T1 sequence (Q93009 whole entry): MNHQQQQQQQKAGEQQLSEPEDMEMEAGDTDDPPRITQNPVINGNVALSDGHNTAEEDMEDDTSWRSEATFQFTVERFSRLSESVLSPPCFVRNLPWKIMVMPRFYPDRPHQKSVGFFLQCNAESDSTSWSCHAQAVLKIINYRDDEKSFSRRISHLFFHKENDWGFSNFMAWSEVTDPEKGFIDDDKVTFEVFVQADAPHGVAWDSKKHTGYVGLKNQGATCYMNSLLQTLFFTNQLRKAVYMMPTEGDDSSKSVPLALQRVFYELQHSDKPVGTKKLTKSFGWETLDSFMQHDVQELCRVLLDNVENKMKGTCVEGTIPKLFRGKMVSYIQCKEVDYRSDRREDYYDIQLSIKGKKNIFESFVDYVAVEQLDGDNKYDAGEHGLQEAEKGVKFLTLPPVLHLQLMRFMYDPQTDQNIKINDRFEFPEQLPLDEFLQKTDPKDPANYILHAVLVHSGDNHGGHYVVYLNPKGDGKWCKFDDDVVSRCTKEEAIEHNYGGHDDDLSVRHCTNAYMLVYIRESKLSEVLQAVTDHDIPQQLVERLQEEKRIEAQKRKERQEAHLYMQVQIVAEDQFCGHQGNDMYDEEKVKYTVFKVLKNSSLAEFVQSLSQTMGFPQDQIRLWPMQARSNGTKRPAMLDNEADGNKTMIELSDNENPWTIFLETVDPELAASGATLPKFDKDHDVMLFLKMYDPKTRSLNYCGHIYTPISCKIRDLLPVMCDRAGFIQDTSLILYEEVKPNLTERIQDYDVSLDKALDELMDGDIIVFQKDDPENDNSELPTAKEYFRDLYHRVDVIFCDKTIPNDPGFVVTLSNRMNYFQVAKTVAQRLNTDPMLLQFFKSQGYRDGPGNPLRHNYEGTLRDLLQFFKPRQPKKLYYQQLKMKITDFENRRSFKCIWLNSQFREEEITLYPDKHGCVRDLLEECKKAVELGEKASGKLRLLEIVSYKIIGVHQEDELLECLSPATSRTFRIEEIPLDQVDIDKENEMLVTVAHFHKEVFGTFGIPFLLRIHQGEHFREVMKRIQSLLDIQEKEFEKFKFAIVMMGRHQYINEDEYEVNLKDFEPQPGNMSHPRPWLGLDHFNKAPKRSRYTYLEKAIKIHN
row,Compound,IC50 [nM]
1,"2-((4-(5-Chloro-3-methyl-2-(piperidin-4-yloxy)phenyl)thieno[3,2-d]pyrimidin-6-yl)methyl)tetrahydrocyclopenta[c]pyrrole-1,3(2H,3aH)-dione [Example 178]",< 1000
2,"CCC(O)c1cc2nccc(-c3cc(Cl)cc(C)c3O[C@@H]3CCNC3)c2s1 (stereo partly drawn) [Example 51, 1-(7-(5-Chloro-3-methyl-2-(((R)-pyrrolidin-3-yl)oxy)phenyl)thieno[3,2-b]pyridin-2-yl)propan-1-ol]",1000 to 10000
3,"Cc1cc(Cl)cc(-c2ncnc3cc(CN4C(=O)CCN(C)C4=O)sc23)c1O[C@H]1CCCNC1 [Example 252, (S)-3-((4-(5-Chloro-3-methyl-2-(piperidin-3-yloxy)phenyl)thieno[3,2-d]pyrimidin-6-yl)methyl)-1-methyldihydropyrimidine-2,4(1H,3H)-dione]",< 1000
4,"CC(=O)N[C@H]1CNC[C@H]1Oc1c(C)cc(Cl)cc1-c1ccnc2cc(CO)sc12 [Example 84, N-((3S,4R)-4-(4-Chloro-2-(2-(hydroxymethyl)thieno[3,2-b]pyridin-7-yl)-6-methylphenoxy)pyrrolidin-3-yl)acetamide]",10000 to 30000
5,"Cc1cc(C#N)cc(-c2ccnc3ccsc23)c1OCC1(C)CNC1 [Example 44, 3-Methyl-4-((3-methylazetidin-3-yl)methoxy)-5-(thieno[3,2-b]pyridin-7-yl)benzonitrile]",1000 to 10000
6,"Cc1cc(Cl)cc(-c2ccnc3cc(CO)sc23)c1O[C@@H]1CNC[C@H]1C [Example 55, (7-(5-Chloro-3-methyl-2-(((3S,4R)-4-methylpyrrolidin-3-yl)oxy)phenyl)thieno[3,2-b]pyridin-2-yl)methanol]",10000 to 30000
7,"Cc1cc(Cl)cc(-c2ncnc3ccsc23)c1O[C@H]1CCCNC1 [Example 262, (S)-4-(5-Chloro-3-methyl-2-(piperidin-3-yloxy)phenyl)thieno[3,2-d]pyrimidine]",10000 to 30000
8,"Cc1cc(Cl)cc(-c2ncnc3cc(CN4C(=O)C5C(C4=O)C5(C)C)sc23)c1OC1CC(N)C1 (centres unmarked) [Example 358, 3-[[4-[2-(3-aminocyclobutoxy)-5-chloro-3-methyl-phenyl]thieno[3,2-d]pyrimidin-6-yl]methyl]-6,6-dimethyl-3-azabicyclo[3.1.0]hexane-2,4-dione; 2,2,2-trifluoroacetic acid]",< 1000
9,"Cc1cc(Cl)cc(-c2ncnc3cc(CN4C(=O)CSC4=O)sc23)c1O[C@@H]1CNC[C@@H]1F [Example 129, 3-((4-(5-Chloro-2-(((3R,4S)-4-fluoropyrrolidin-3-yl)oxy)-3-methylphenyl)thieno[3,2-d]pyrimidin-6-yl)methyl)thiazolidine-2,4-dione]",< 1000
10,"CCC(O)c1cc2ncnc(-c3cc(Cl)cc(C)c3OCC3CNC3)c2s1 (centres unmarked) [Example 13, 1-(4-(2-(Azetidin-3-ylmethoxy)-5-chloro-3-methylphenyl)thieno[3,2-d]pyrimidin-6-yl)propan-1-ol]",1000 to 10000
11,"Cc1cc(Cl)cc(-c2ncnc3cc(CN4C(=O)C5CC5C4=O)sc23)c1O[C@@H]1CCNC[C@H]1F (stereo partly drawn) [Example 309, 3-[[4-[5-chloro-2-[[(3R,4R)-3-fluoro-4-piperidyl]oxy]-3-methyl-phenyl]thieno[3,2-d]pyrimidin-6-yl]methyl]-3-azabicyclo[3.1.0]hexane-2,4-dione dihydrochloride]",< 1000
12,"Cc1cc(Cl)cc(-c2ccnc3cc(CO)sc23)c1OCC12CNCC1C2 (centres unmarked) [Example 69, (7-(2-((3-Azabicyclo[3.1.0]hexan-1-yl)methoxy)-5-chloro-3-methylphenyl)thieno[3,2-b]pyridin-2-yl)methanol]",10000 to 30000
13,"Cc1cc(C(F)(F)F)cc(-c2ccnc3cc(Cn4c(=O)ccn(C)c4=O)sc23)c1O[C@@H]1CNC[C@@H]1F [Example 132, 3-((7-(2-(((3R,4S)-4-Fluoropyrrolidin-3-yl)oxy)-3-methyl-5-(trifluoromethyl)phenyl)thieno[3,2-b]pyridin-2-yl)methyl)-1-methylpyrimidine-2,4(1H,3H)-dione]",< 1000
14,"CCC(O)c1cc2nccc(-c3cc(Cl)cc(C)c3OCC3CNC3)c2s1 (centres unmarked) [Example 14, 1-(7-(2-(Azetidin-3-ylmethoxy)-5-chloro-3-methylphenyl)thieno[3,2-b]pyridin-2-yl)propan-1-ol]",1000 to 10000

# Further lines, results first:
row,IC50 [nM],Compound
1,< 1000,"Cc1cc(Cl)cc(-c2ccnc3cc(CN4C(=O)C5C(C4=O)C5(C)C)sc23)c1O[C@H]1CCCN[C@H]1C (stereo partly drawn) [Example 363, 3-[[7-[5-chloro-3-methyl-2-[[(2S,3S)-2-methyl-3-piperidyl]oxy]phenyl]thieno[3,2-b]pyridin-2-yl]methyl]-6,6-dimethyl-3-azabicyclo[3.1.0]hexane-2,4-dione; 2,2,2-trifluoroacetic acid]"
2,< 1000,"Cc1cc(Cl)cc(-c2ncnc3cc(CN4C(=O)C5C(C4=O)C5(C)C)sc23)c1O[C@H]1CCCN[C@@H]1C (stereo partly drawn) [Example 360, 3-[[4-[5-chloro-3-methyl-2-[[(2R,3S)-2-methyl-3-piperidyl]oxy]phenyl]thieno[3,2-d]pyrimidin-6-yl]methyl]-6,6-dimethyl-3-azabicyclo[3.1.0]hexane-2,4-dione]"

# Same assay, conditions: recombinant full-length USP7 62 pM; ubiquitin-rhodamine 100 nM; 30-minute incubation, 1 hour reaction at room temperature; read-out: Potency (USP7 IC50)
row,Compound,IC50 [nM]
1,"Cc1cc(Cl)cc(-c2ccnc3cc(Cn4c(=O)ccn(CC(F)(F)F)c4=O)sc23)c1OC1CC(N2CCC(F)C2)C1 (centres unmarked) [Example 685, 3-[[7-[5-chloro-2-[3-(3-fluoropyrrolidin-1-yl)cyclobutoxy]-3-methyl-phenyl]thieno[3,2-b]pyridin-2-yl]methyl]-1-(2,2,2-trifluoroethyl)pyrimidine-2,4-dione; 2,2,2-trifluoroacetic acid]",< 1000

# Same assay, conditions: recombinant full-length USP7 62 pM; ubiquitin-rhodamine 100 nM; 30-minute pre-incubation, 1 hour reaction at room temperature; read-out: Potency (USP7 IC50)
row,Compound,IC50 [nM]
1,"Cc1cc(Cl)cc(-c2ccnc3cc(Cn4c(=O)ccn(C)c4=O)sc23)c1OC1CC(NCCO)C1 (centres unmarked) [Example 532, 3-[[7-[5-chloro-2-[3-(2-hydroxyethylamino)cyclobutoxy]-3-methyl-phenyl]thieno[3,2-b]pyridin-2-yl]methyl]-1-methyl-pyrimidine-2,4-dione; 2,2,2-trifluoroacetic acid]",< 1000
2,Cc1cc([N+](=O)[O-])cc(-c2ccnc3cc(Cn4c(=O)ccn(CC(F)(F)F)c4=O)sc23)c1Oc1cn[nH]c1 [Example 614],< 1000

# Second part, the compound after the results:
row,IC50 [nM],Compound
1,< 1000,"Cc1cc(Cl)cc(-c2ccnc3c(F)c(CO)sc23)c1O[C@@H]1CNC[C@@H]1F [Example 407, [7-[5-chloro-2-[(3R,4S)-4-fluoropyrrolidin-3-yl]oxy-3-methyl-phenyl]-3-fluoro-thieno[3,2-b]pyridin-2-yl]methanol]"
2,< 1000,"CCO[C@H]1CNC[C@H]1Oc1c(C)cc(Cl)cc1-c1ccnc2cc(Cn3c(=O)ccn(CC(F)(F)F)c3=O)sc12 [Example 604, 3-[[7-[5-chloro-2-[(3R,4S)-4-ethoxypyrrolidin-3-yl]oxy-3-methyl-phenyl]thieno[3,2-b]pyridin-2-yl]methyl]-1-(2,2,2-trifluoroethyl)pyrimidine-2,4-dione]"
3,< 1000,"Cc1cc(Cl)cc(-c2ccnc3cc(Cn4c(=O)ccn(C)c4=O)sc23)c1OC1CC2CC1N(CCO)C2 (centres unmarked) [Example 461, 3-[[7-[5-chloro-2-[[3-(2-hydroxyethyl)-3-azabicyclo[2.2.1]heptan-5-yl]oxy]-3-methyl-phenyl]thieno[3,2-b]pyridin-2-yl]methyl]-1-methyl-pyrimidine-2,4-dione]"
4,< 1000,"Cn1ccc(=O)n(Cc2cc3nccc(-c4cc(Cl)cc(C(F)F)c4O[C@H]4CCCNC4)c3s2)c1=O [Example 498, 3-[[7-[5-chloro-3-(difluoromethyl)-2-[[(3S)-3-piperidyl]oxy]phenyl]thieno[3,2-b]pyridin-2-yl]methyl]-1-methyl-pyrimidine-2,4-dione]"
5,< 1000,"Cc1cc(Cl)cc(-c2ccnc3cc(Cn4c(=O)c(F)cn(C)c4=O)sc23)c1O[C@H]1CCCNC1 [Example 422, 3-[[7-[5-chloro-3-methyl-2-[[(3S)-3-piperidyl]oxy]phenyl]thieno[3,2-b]pyridin-2-yl]methyl]-5-fluoro-1-methyl-pyrimidine-2,4-dione]"
6,< 1000,"Cc1cc(Cl)cc(-c2ccnc3cc(Cn4c(=O)ccn(C)c4=O)sc23)c1O[C@@H]1CNCC[C@@H]1F [Example 570, 3-[[7-[5-chloro-2-[[(3R,4S)-4-fluoro-3-piperidyl]oxy]-3-methyl-phenyl]thieno[3,2-b]pyridin-2-yl]methyl]-1-methyl-pyrimidine-2,4-dione]"
7,< 1000,"Cc1cc(Cl)cc(-c2ccnc3cc(Cn4c(=O)ccn(C)c4=O)sc23)c1O[C@H]1CCCN(C)CC1 [Example 492, 3-[[7-[5-chloro-3-methyl-2-[(4S)-1-methylazepan-4-yl]oxy-phenyl]thieno[3,2-b]pyridin-2-yl]methyl]-1-methyl-pyrimidine-2,4-dione]"
8,< 1000,"Cc1cc(Cl)cc(-c2ncnc3cc(Cn4c(=O)ccn(C(C)C)c4=O)sc23)c1OC1CC2CNC1C2 (centres unmarked) [Example 509, 3-[[4-[2-(3-azabicyclo[2.2.1]heptan-5-yloxy)-5-chloro-3-methyl-phenyl]thieno[3,2-d]pyrimidin-6-yl]methyl]-1-isopropyl-pyrimidine-2,4-dione]"
9,< 1000,"COC(=O)N1CC[C@@H](Oc2c(C)cc(Cl)cc2-c2ccnc3cc(Cn4c(=O)ccn(CC(F)(F)F)c4=O)sc23)[C@@H](C)C1 [Example 643, methyl (3S,4R)-4-[4-chloro-2-[2-[[2,6-dioxo-3-(2,2,2-trifluoroethyl)pyrimidin-1-yl]methyl]thieno[3,2-b]pyridin-7-yl]-6-methyl-phenoxy]-3-methyl-piperidine-1-carboxylate]"
10,< 1000,"Cc1cc(Cl)cc(-c2ccnc3cc(Cn4c(=O)ccn(CC(F)(F)F)c4=O)sc23)c1OC1CC2CC1CN2 (centres unmarked) [Example 577, 3-[[7-[2-(2-azabicyclo[2.2.1]heptan-5-yloxy)-5-chloro-3-methyl-phenyl]thieno[3,2-b]pyridin-2-yl]methyl]-1-(2,2,2-trifluoroethyl)pyrimidine-2,4-dione; 2,2,2-trifluoroacetic acid]"
